# Values quoted from earlier work in patent publication US11818994B2, “Brachiaria endophytes and related methods” (Agriculture Victoria Services PTY LTD, priority 2015, dated 2023).
# System: Nitrosomonas spp
# Settings: Subbarao et al. 2009
substance,measurement,value
brachialactone,biocidal activity against Nitrosomonas spp,biocidal activity
